Data: US10035790B2, “RORγ modulators” (BRISTOL-MYERS SQUIBB COMPANY, priority 2012, dated 2018)

Target: T1, ligand binding domain of human RORγ (A262-S507) (Homo sapiens, UniProt P51449)
T1 construct: made in house; host or cells: E. coli
T1 sequence (P51449 262-507): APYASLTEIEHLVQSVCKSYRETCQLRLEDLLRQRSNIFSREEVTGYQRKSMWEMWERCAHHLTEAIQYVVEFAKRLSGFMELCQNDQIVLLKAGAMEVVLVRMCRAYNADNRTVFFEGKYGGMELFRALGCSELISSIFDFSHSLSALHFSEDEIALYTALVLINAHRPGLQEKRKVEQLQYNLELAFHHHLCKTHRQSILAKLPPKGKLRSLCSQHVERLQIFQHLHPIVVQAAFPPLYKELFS
Experiment: General RORγ SPA binding assay (competition with [3H]25-hydroxycholesterol)
Details: RORγ SPA binding assay, inhibition of [3H]25-hydroxycholesterol binding; read-out: IC50
Procedure: Example 2 General RORγ SPA Binding Assay
The binding of potential ligands to RORγ is measured by competition with [^3H]25-hydroxycholesterol using a scintillation proximity assay (SPA) binding assay. The ligand binding domain of human RORγ (A262-S507) with an N-terminal His tag is expressed in E. coli and purified using nickel affinity chromotography. 50 nM RORγ (A262-S507) is incubated with test compound at varying concentrations for 15 min at room temperature in PBS buffer containing 0.5% fatty acid free BSA. […] of [^3H]25-hydroxycholesterol is then added, and the reaction is incubated for 15 min. 4 mg/mL of Ysi Copper HIS-TAG SPA Beads (Perkin Elmer) are added, and the mixture is incubated for 30 min. The reaction is read on a MicroBeta Trilux scintillation plate reader (Perkin Elmer). IC50 values are determined from the percentage inhibition of [^3H]25-hydroxycholesterol binding.

In order of rising IC50:
1. Cc1nc(C)c(C(=O)NCc2cccc(Cl)c2)c(C2CCN(C(=O)Cc3c(F)cccc3F)CC2)n1 [Compound A81]  5.2 nM
2. Cc1nc(C)c(C(=O)NCc2cccc(C(F)(F)F)n2)c(C2CCN(C(=O)Cc3c(F)cccc3F)CC2)n1 [Compound A82, 4-(1-(2-(2,6-difluorophenyl)acetyl)piperidin-4-yl)-2,6-dimethyl-N-((6-(trifluoromethyl)pyridin-2-yl)methyl)pyrimidine-5-carboxamide]  6.2 nM
3. Cc1cc(C)cc(CNC(=O)c2c(C)nc(C)nc2C2CCN(C(=O)Cc3c(F)cccc3F)CC2)c1 [Compound A80, 4-(1-(2-(2,6-difluorophenyl)acetyl)piperidin-4-yl)-N-(3,5-dimethylbenzyl)-2,6-dimethylpyrimidine-5-carboxamide]  9.8 nM
4. Cc1cc(C)cc(CNC(=O)c2cncnc2C2CCN(C(=O)Cc3c(F)cccc3F)CC2)c1 [Compound A57, 4-(1-(2-(2,6-difluorophenyl)acetyl)piperidin-4-yl)-N-(3,5-dimethylbenzyl)pyrimidine-5-carboxamide]  21.8 nM
5. COc1cccc(CNC(=O)c2cnc(C)nc2C2CCN(C(=O)Cc3c(F)cccc3F)CC2)c1 [Compound A58, 4-(1-(2-(2,6-difluorophenyl)acetyl)piperidin-4-yl)-N-(3-methoxybenzyl)-2-methylpyrimidine-5-carboxamide]  24.3 nM
6. Cc1ncc(C(=O)NCc2ccc(Cl)cc2C)c(C2CCN(C(=O)Cc3c(F)cccc3F)CC2)n1 [Compound A59, N-(4-chloro-2-methylbenzyl)-4-(1-(2-(2,6-difluorophenyl)acetyl)piperidin-4-yl)-2-methylpyrimidine-5-carboxamide]  25.5 nM
7. Cc1cccc(CNC(=O)c2cnc(C)nc2C2CCN(C(=O)Cc3c(F)cccc3F)CC2)c1 [Compound A60, 4-(1-(2-(2,6-difluorophenyl)acetyl)piperidin-4-yl)-2-methyl-N-(3-methylbenzyl)pyrimidine-5-carboxamide]  35 nM
8. Cc1nc(C)c(C(=O)NCc2ccnc(C(F)(F)F)c2)c(C2CCN(C(=O)Cc3c(F)cccc3F)CC2)n1 [Compound A61, 4-(1-(2-(2,6-difluorophenyl)acetyl)piperidin-4-yl)-2,6-dimethyl-N-((2-(trifluoromethyl)pyridin-4-yl)methyl)pyrimidine-5-carboxamide]  38.2 nM
9. Cc1ncc(C(=O)NCc2ccc(Cl)cc2)c(C2CCN(C(=O)Cc3c(F)cccc3F)CC2)n1 [Compound A62, N-(4-chlorobenzyl)-4-(1-(2-(2,6-difluorophenyl)acetyl)piperidin-4-yl)-2-methylpyrimidine-5-carboxamide]  43.4 nM
10. CSc1ncc(C(=O)NCc2ccc(Cl)c(Cl)c2)c(C2CCN(C(=O)Cc3c(F)cccc3F)CC2)n1 [Compound A85, N-(3,4-dichlorobenzyl)-4-(1-(2-(2,6-difluorophenyl)acetyl)piperidin-4-yl)-2-(methylthio)pyrimidine-5-carboxamide]  43.8 nM
11. Cc1nc(C)c(C(=O)NCc2ccnc(C#N)c2)c(C2CCN(C(=O)Cc3c(F)cccc3F)CC2)n1 [Compound A83, N-((2-cyanopyridin-4-yl)methyl)-4-(1-(2-(2,6-difluorophenyl)acetyl)piperidin-4-yl)-2,6-dimethylpyrimidine-5-carboxamide]  45.8 nM
12. Cc1ncc(C(=O)NCc2cccc(Cl)c2C)c(C2CCN(C(=O)Cc3c(F)cccc3F)CC2)n1 [Compound A63, N-(3-chloro-2-methylbenzyl)-4-(1-(2-(2,6-difluorophenyl)acetyl)piperidin-4-yl)-2-methylpyrimidine-5-carboxamide]  63 nM
13. CCc1ncc(C(=O)NCc2cc(C)cc(C)c2)c(C2CCN(C(=O)Cc3c(F)cccc3F)CC2)n1 [Compound A64, 4-(1-(2-(2,6-difluorophenyl)acetyl)piperidin-4-yl)-N-(3,5-dimethylbenzyl)-2-ethylpyrimidine-5-carboxamide]  64 nM
14. O=C(NCc1ccc(Cl)c(Cl)c1)c1cncnc1C1CCN(C(=O)Cc2c(Cl)cccc2Cl)CC1 [Compound A65, N-(3,4-dichlorobenzyl)-4-(1-(2-(2,6-dichlorophenyl)acetyl)piperidin-4-yl)pyrimidine-5-carboxamide]  69 nM
15. Cc1ncc(C(=O)NCc2cc(C(F)(F)F)ccn2)c(C2CCN(C(=O)Cc3c(F)cccc3F)CC2)n1 [Compound A66, 4-(1-(2-(2,6-difluorophenyl)acetyl)piperidin-4-yl)-2-methyl-N-((4-(trifluoromethyl)pyridin-2-yl)methyl)pyrimidine-5-carboxamide]  72 nM
16. Cc1cc(C(F)(F)F)nc(CNC(=O)c2cnc(C)nc2C2CCN(C(=O)Cc3c(F)cccc3F)CC2)n1 [Compound A67, 4-(1-(2-(2,6-difluorophenyl)acetyl)piperidin-4-yl)-2-methyl-N-((4-methyl-6-(trifluoromethyl)pyrimidin-2-yl)methyl)pyrimidine-5-carboxamide]  85 nM
17. O=C(NCc1ccc(Cl)c(Cl)c1)c1cncnc1C1CCN(C(=O)Cc2c(F)ccc(F)c2F)CC1 [Compound A68, N-(3,4-dichlorobenzyl)-4-(1-(2-(2,3,6-trifluorophenyl)acetyl)piperidin-4-yl)pyrimidine-5-carboxamide]  95 nM
18. Cc1ncc(C(=O)NCc2ccccc2)c(C2CCN(C(=O)Cc3c(F)cccc3F)CC2)n1 [Compound A69, N-benzyl-4-(1-(2-(2,6-difluorophenyl)acetyl)piperidin-4-yl)-2-methylpyrimidine-5-carboxamide]  144 nM
19. Cc1cc(CNC(=O)c2cnc(C)nc2C2CCN(C(=O)Cc3c(F)cccc3F)CC2)ccn1 [Compound A70, 4-(1-(2-(2,6-difluorophenyl)acetyl)piperidin-4-yl)-2-methyl-N-((2-methylpyridin-4-yl)methyl)pyrimidine-5-carboxamide]  213 nM
20. Cc1ncc(C(=O)NCc2ccc(Cl)nc2)c(C2CCN(C(=O)Cc3c(F)cccc3F)CC2)n1 [Compound A71, N-((6-chloropyridin-3-yl)methyl)-4-(1-(2-(2,6-difluorophenyl)acetyl)piperidin-4-yl)-2-methylpyrimidine-5-carboxamide]  242 nM
21. Cc1ncc(C(=O)NCc2cnc(Cl)s2)c(C2CCN(C(=O)Cc3c(F)cccc3F)CC2)n1 [Compound A72, N-((2-chlorothiazol-5-yl)methyl)-4-(1-(2-(2,6-difluorophenyl)acetyl)piperidin-4-yl)-2-methylpyrimidine-5-carboxamide]  317 nM
22. Cc1cc(CNC(=O)c2cnc(C)nc2C2CCN(C(=O)Cc3c(F)cccc3F)CC2)cc(C)n1 [Compound A73, 4-(1-(2-(2,6-difluorophenyl)acetyl)piperidin-4-yl)-N-((2,6-dimethylpyridin-4-yl)methyl)-2-methylpyrimidine-5-carboxamide]  426 nM
23. Cc1ncc(C(=O)NCc2ccc(C(F)(F)F)nc2)c(C2CCN(C(=O)Cc3c(F)cccc3F)CC2)n1 [Compound A74, 4-(1-(2-(2,6-difluorophenyl)acetyl)piperidin-4-yl)-2-methyl-N-((6-(trifluoromethyl)pyridin-3-yl)methyl)pyrimidine-5-carboxamide]  619 nM
24. COC(=O)C(NC(=O)c1cnc(C)nc1C1CCN(C(=O)Cc2c(F)cccc2F)CC1)c1cccc(Cl)c1 (centres unmarked) [Compound A75, methyl 2-(3-chlorophenyl)-2-(4-(1-(2-(2,6-difluorophenyl)acetyl)piperidin-4-yl)-2-methylpyrimidine-5-carboxamido)acetate]  750 nM
25. Cc1ncc(C(=O)NC(C)c2cccc(Cl)c2)c(C2CCN(C(=O)Cc3c(F)cccc3F)CC2)n1 (centres unmarked) [Compound A76, N-(1-(3-chlorophenyl)ethyl)-4-(1-(2-(2,6-difluorophenyl)acetyl)piperidin-4-yl)-2-methylpyrimidine-5-carboxamide]  1120 nM
26. CCNC(=O)c1cc(CNC(=O)c2cnc(C)nc2C2CCN(C(=O)Cc3c(F)cccc3F)CC2)ccn1 [Compound A77, 4-(1-(2-(2,6-difluorophenyl)acetyl)piperidin-4-yl)-N-((2-(ethylcarbamoyl)pyridin-4-yl)methyl)-2-methylpyrimidine-5-carboxamide]  1340 nM
27. Cc1cc(C)cc(CNC(=O)c2c(C(C)C)nc(C)nc2C2CCN(C(=O)Cc3c(F)cccc3F)CC2)c1 [Compound A84, 4-(1-(2-(2,6-difluorophenyl)acetyl)piperidin-4-yl)-N-(3,5-dimethylbenzyl)-6-isopropyl-2-methylpyrimidine-5-carboxamide]  1650 nM
28. Cc1ncc(C(=O)NCc2cc(C)n(C)n2)c(C2CCN(C(=O)Cc3c(F)cccc3F)CC2)n1 [Compound A78, 4-(1-(2-(2,6-difluorophenyl)acetyl)piperidin-4-yl)-N-((1,5-dimethyl-1H-pyrazol-3-yl)methyl)-2-methylpyrimidine-5-carboxamide]  1790 nM
29. Cc1cnc(CNC(=O)c2cnc(C)nc2C2CCN(C(=O)Cc3c(F)cccc3F)CC2)cn1 [Compound A79, 4-(1-(2-(2,6-difluorophenyl)acetyl)piperidin-4-yl)-2-methyl-N-((5-methylpyrazin-2-yl)methyl) pyrimidine-5-carboxamide]  5260 nM
